Measured values from US12123019B2, “Uses of kinase inhibitors for inducing and maintaining pluripotency” (Whitehead Institute for Biomedical Research, priority 2014, dated 2024).

Tested on: OCT4-ΔPE-GFP-negative (primed) human ESCs
Assay: Removal of latent OCT4-ΔPE-GFP-negative cells during 2i/L/DOX induction
Assay type: cell-based
Conditions: additional treatment with 0.1 μM PD173074 and 5 μM SB431542 upon addition of 2i/L/DOX
Text: VSVG coated lentiviruses were generated in HEK-293 cells as described previously (Brambrink et al., 2008; Soldner et al., 2009; Soldner et al., 2011). Briefly, culture medium was changed 12 hr post-transfection and virus-containing supernatant was collected 48 to 72 hr post transfection. Viral supernatant was filtered through a […] filter. Virus-containing supernatants of the 2 reprogramming viruses (FUW-tetO-lox-hKLF2 and FUW-tetO-lox-hNANOG) were pooled and supplemented with the FUW-lox-M2rtTA virus and an equal volume of fresh culture medium. 1×10^6 human ESCs were seeded 24 hr before transduction in T75 flasks on matrigel in mTesr1 medium (STEMCELL Technologies). Two consecutive infections in the presence of […] of polybrene were performed over a period of 24 hr. Culture medium was changed 12 hr after the last infection. Five days after transduction, human ESCs were passaged using 0.25% trypsin/EDTA solution (Invitrogen) and re-plated on mitomycin C inactivated mouse embryonic fibroblast (MEF) feeder layers in conventional human ESC medium. To induce conversion to the naïve state, human ESCs were trypsinized and seeded at a density of 1×10^5 cells per 6 individual well on a MEF feeder layer in presence of ROCK inhibitor Y-27632. […]

NC(=O)c1ccc(-c2nc(-c3ccc4c(c3)OCO4)c(-c3ccccn3)[nH]2)cc1 [SB431542]
latent OCT4-ΔPE-GFP-negative cells: removed almost entirely
